Experiment [1] deals with T1, Recombinant KAT6A/MOZ (488-778) protein (Homo sapiens, UniProt Q92794).
T1 construct: Recombinant KAT6A/MOZ (488-778) protein (Active motif, Catalog #81223); purchased Active Motif 81223
Nature of the experiment: Kat6a AlphaLISA Inhibition Screening Assay. The experiment is classed as biochemical. Summed up: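 Recombinant KAT6A (488-778), 25 nM, was preincubated with compound (10-point dose response) for 60 or 10 min. It then reacted 120 min at room temperature with 200 nM biotin-H3(1-21) peptide and 400 nM acetyl-CoA, pH 8.0, with 330 nM TSA present. Acetylation was detected by AlphaLISA (anti-acetyl-lysine acceptor, streptavidin donor beads).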

The subject of a further experiment is ZR-75-1. Briefly: In Vitro Cancer Cell Assay (cell viability, Cell Titer Glow, 10 days). Format: cell-based. The conditions noted are these: Homo sapiens; ZR-75-1 cells; Table 2. Here is the method:
ZR-75-1 and T47D are breast cancer cell lines containing high KAT6A protein expression. Proliferation of these cell lines are inhibited upon treatment with a KAT6A inhibitor. Cell line MCF7 is used as a negative control. MCF7 cells have a low KAT6A protein expression and are not growth inhibited upon treatment with KAT6A inhibitors. WM-1119 is used as a positive control.
1500 cells are seeded per well and incubated overnight at 37° C. and 5% CO2. Cells are treated after 24 hours with a compound (stock solution, 10 mM in DMSO) with 9-10 dilutions and a final DMSO concentration of 0.5%. […] Test compounds are tested like WM-1119. Plates are incubated at 37° C. and 5% CO2 for 10 days. Media is replenished after every alternate day. At day 10, Cell Titer Glow is added to the wells and luminescence is recorded after 10 min incubation. Data are normalized to 100% with DMSO control and subtracting media blank. Cell viability is of the test compounds is measured.
The above procedure can be followed for determining activity in additional cell lines, for example, ZR-75-1, T47D, CHAGOK1 and other cell lines that have high expression of KAT6A. The number of cells used will be optimized based on growth rate of the individual cell lines.
Background: ATP-based viability assays read luminescence as a measure of living cells.

Where [2] appears, read: 60′ pre-incubation, Table 2, read-out: Kat6A biochemical assay: IC50.
[3] abbreviates: 60′ pre-incubation, Table 3, read-out: Kat6A Biochemical assay: IC50.
The mark [4] stands for this setting: 10′ pre-incubation, Table 3, read-out: Kat6A Biochemical assay: IC50.

The results in this text go back to US11976075B2, “Inhibitors of the MYST family of lysine acetyl transferases” (Isosterix, Inc., priority 2022, dated 2024).

Like-named read-outs stand apart in the source and are kept apart here.

T1 sequence (Q92794 488-778): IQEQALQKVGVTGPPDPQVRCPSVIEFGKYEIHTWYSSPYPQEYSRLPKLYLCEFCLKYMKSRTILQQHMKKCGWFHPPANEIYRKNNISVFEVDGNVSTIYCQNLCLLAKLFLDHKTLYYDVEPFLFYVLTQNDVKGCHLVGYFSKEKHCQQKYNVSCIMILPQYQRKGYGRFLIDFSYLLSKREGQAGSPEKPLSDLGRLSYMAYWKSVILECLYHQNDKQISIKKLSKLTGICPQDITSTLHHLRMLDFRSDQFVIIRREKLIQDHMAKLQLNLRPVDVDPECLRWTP

Broadly, the IC50 is the concentration that gives 50% inhibition. By EC50 is commonly meant the concentration at which the effect is half-maximal. Consider `C=CC(=O)NCc1ccn(Cc2cc(OC)c3c(NS(=O)(=O)Cc4ccccc4)noc3c2)n1` [Synthetic Example 20, N-((1-((4-methoxy-3-((phenylmethyl)sulfonamido)benzo[d]isoxazol-6-yl)methyl)-1H-pyrazol-3-yl)methyl)acrylamide], for which, in experiment [1] (setting [2]), the IC50 is no more than 10 µM. In the experiment on ZR-75-1, the concentration giving a half-maximal response (EC50) was greater than 10 µM. `C=CS(=O)(=O)NCc1ccn(Cc2cc(OC)c3c(NS(=O)(=O)Cc4ccccc4)noc3c2)n1` [Synthetic Example 21, N-((1-((4-methoxy-3-((phenylmethyl)sulfonamido)benzo[d]isoxazol-6-yl)methyl)-1H-pyrazol-3-yl)methyl)ethenesulfonamide]: in experiment [1] (setting [2]), the IC50 is no more than 10 µM. In the experiment with ZR-75-1, this compound gave an EC50 greater than 10 µM. Consider `C#CC(=O)N1Cc2cnn(Cc3cc(OC)c4c(NS(=O)(=O)c5c(OC)cccc5OC)noc4c3)c2C1` [Synthetic Example 25A, 2,6-dimethoxy-N-(4-methoxy-6-((5-propioloyl-5,6-dihydropyrrolo[3,4-c]pyrazol-1(4H)-yl)methyl)benzo[d]isoxazol-3-yl)benzenesulfonamide], for which, in experiment [1] (setting [2]), the IC50 is no more than 10 µM. The compound also showed an EC50 in the experiment with ZR-75-1 of no more than 10 µM.

On to `C#CC(=O)N1Cc2cn(Cc3cc(OC)c4c(NS(=O)(=O)c5c(OC)cccc5OC)noc4c3)nc2C1` [Synthetic Example 25B, 2,6-dimethoxy-N-(4-methoxy-6-((5-propioloyl-5,6-dihydropyrrolo[3,4-c]pyrazol-2(4H)-yl)methyl)benzo[d]isoxazol-3-yl)benzenesulfonamide], for which the IC50 in experiment [1] (setting [2]) is no more than 10 µM. In the experiment with ZR-75-1, this compound came in with a concentration for a half-maximal effect (EC50) greater than 10 µM. Take `C#CC(=O)N1Cc2cnn(Cc3cc(OC)c4c(NS(=O)(=O)c5ccccc5OC)noc4c3)c2C1` [Synthetic Example 26A, 2-methoxy-N-(4-methoxy-6-((5-propioloyl-5,6-dihydropyrrolo[3,4-c]pyrazol-1(4H)-yl)methyl)benzo[d]isoxazol-3-yl)benzenesulfonamide]: the IC50 in experiment [1] (setting [2]) was no more than 10 µM. The concentration giving a half-maximal response (EC50) in the experiment with ZR-75-1 was no more than 10 µM.

Regarding `C#CC(=O)N1Cc2cnn(Cc3cc(OC)c4c(NS(=O)(=O)CC5CCCCC5)noc4c3)c2C1` [Synthetic Example 30A, 1-cyclohexyl-N-(4-methoxy-6-((5-propioloyl-5,6-dihydropyrrolo[3,4-c]pyrazol-1(4H)-yl)methyl)benzo[d]isoxazol-3-yl)methanesulfonamide], the IC50 in experiment [1] (setting [2]) was no more than 10 µM. In the experiment with ZR-75-1, this compound had an EC50 of no more than 10 µM. For the compound `C#CC(=O)NCc1cnn(Cc2cc(OC)c3c(NS(=O)(=O)c4ccccc4OC)noc3c2)c1` [Synthetic Example 31, N-((1-((4-methoxy-3-((2-methoxyphenyl)sulfonamido)benzo[d]isoxazol-6-yl)methyl)-1H-pyrazol-4-yl)methyl) propiolamide], in experiment [1] (setting [2]), the IC50 is no more than 10 µM. In the experiment on ZR-75-1, this compound gave an EC50 of no more than 10 µM.

As to `C=CS(=O)(=O)NCc1cnn(Cc2cc(OC)c3c(NS(=O)(=O)c4ccccc4OC)noc3c2)c1` [Synthetic Example 32, 2-methoxy-N-(4-methoxy-6-((4-(vinylsulfonamidomethyl)-1H-pyrazol-1-yl)methyl)benzo[d]isoxazol-3-yl)benzenesulfonamide], the IC50 in experiment [1] (setting [2]) is no more than 10 µM. This compound had an EC50 in the experiment with ZR-75-1 of no more than 10 µM. With `C=CS(=O)(=O)NCc1cnn(Cc2cc(OC)c3c(NS(=O)(=O)c4c(OC)cccc4OC)noc3c2)c1` [Synthetic Example 33, 2,6-dimethoxy-N-(4-methoxy-6-((4-(vinylsulfonamidomethyl)-1H-pyrazol-1-yl)methyl)benzo[d]isoxazol-3-yl)benzenesulfonamide], the concentration for half-maximal inhibition (IC50) in experiment [1] (setting [2]) is no more than 10 µM. This compound also showed an EC50 in the experiment with ZR-75-1 of no more than 10 µM. Turning to `C#CC(=O)NCc1cnn(Cc2cc(OC)c3c(NS(=O)(=O)c4ccccc4C(=O)OC)noc3c2)c1` [Synthetic Example 36, methyl 2-(N-(4-methoxy-6-((4-(propiolamidomethyl)-1H-pyrazol-1-yl)methyl)benzo[d]isoxazol-3-yl)sulfamoyl)benzoate], in experiment [1] (setting [2]), the IC50 was no more than 10 µM. The EC50 in the experiment on ZR-75-1 was no more than 10 µM. In the case of `C#CC(=O)NCc1cnn(Cc2cc(OC)c3c(NS(=O)(=O)c4ccccc4C(=O)O)noc3c2)c1` [Synthetic Example 37, 2-(N-(4-methoxy-6-((4-(propiolamidomethyl)-1H-pyrazol-1-yl)methyl)benzo[d]isoxazol-3-yl)sulfamoyl)benzoic acid], the IC50 in experiment [1] (setting [2]) is no more than 10 µM. In addition, in the experiment with ZR-75-1, the EC50 is no more than 10 µM.

For `C#CC(=O)NCc1cnn(Cc2cc(OC3CC3)c3c(NS(=O)(=O)c4ccccc4OC)noc3c2)c1` [Synthetic Example 43, N-((1-((4-cyclopropoxy-3-((2-methoxyphenyl)sulfonamido)benzo[d]isoxazol-6-yl)methyl)-1H-pyrazol-4-yl)methyl)propiolamide], in experiment [1] (setting [2]), the concentration for half-maximal inhibition (IC50) was no more than 10 µM. For the same compound, the EC50 with ZR-75-1 was no more than 10 µM. `C=CS(=O)(=O)NCc1cnn(Cc2cc(OC)c3c(NS(=O)(=O)CC4CCCCC4)noc3c2)c1` [compound 6]: the IC50 in experiment [1] (setting [2]) is no more than 10 µM. For the same compound, the EC50 with ZR-75-1 is no more than 10 µM. As for `C#CC(=O)N1CCN(c2cccc(-c3cc(OC)c4c(NS(=O)(=O)CC5CCCCC5)noc4c3)c2)CC1` [compound 117, 1-cyclohexyl-N-(4-methoxy-6-(3-(4-propioloylpiperazin-1-yl)phenyl)benzo[d]isoxazol-3-yl) methanesulfonamide], the 50% inhibitory concentration (IC50) in experiment [1] (setting [3]) is no more than 10 µM. `C#CC(=O)N1CCN(c2csc(-c3cc(OC)c4c(NS(=O)(=O)c5c(OC)cccc5OC)noc4c3)n2)CC1` [compound 118, 2,6-dimethoxy-N-(4-methoxy-6-(4-(4-propioloylpiperazin-1-yl)thiazol-2-yl)benzo[d]isoxazol-3-yl)benzenesulfonamide]: the half-inhibitory concentration (IC50) in experiment [1] (setting [3]) was no more than 10 µM. On to `C#CC(=O)N1CCN(c2ccnc(-c3cc(OC)c4c(NS(=O)(=O)c5c(OC)cccc5OC)noc4c3)c2)CC1` [compound 119, 2,6-dimethoxy-N-(4-methoxy-6-(4-(4-propioloylpiperazin-1-yl)pyridin-2-yl)benzo[d]isoxazol-3-yl)benzenesulfonamide], for which the IC50 in experiment [1] (setting [3]) was no more than 10 µM. Still for that read-out and setting: for `C#CC(=O)N1CCN(c2cccc(-c3cc4onc(NS(=O)(=O)c5c(OC)cccc5OC)c4cc3C)c2)CC1` [compound 120, 2,6-dimethoxy-N-(5-methyl-6-(3-(4-propioloylpiperazin-1-yl)phenyl)benzo[d]isoxazol-3-yl) benzenesulfonamide] the value was no more than 10 µM. In the case of `COc1cc(Cn2cccn2)cc2c1c(NS(=O)(=O)CC1CCCCC1)nn2C` [compound 121, N-(6-((1H-pyrazol-1-yl)methyl)-4-methoxy-1-methyl-1H-indazol-3-yl)-1-cyclohexylmethanesulfonamide], the IC50 in experiment [1] (setting [4]) was in the range of 10 to 20 µM. The same measure, in the same setting: as for `COc1cc(Cn2cccn2)cc2c1c(NS(=O)(=O)c1ccccc1F)nn2C` [compound 122, N-(6-((1H-pyrazol-1-yl)methyl)-4-methoxy-1-methyl-1H-indazol-3-yl)-2-fluorobenzenesulfonamide], the figure is 20 to 50 µM.

As for `COc1cccc(OC)c1S(=O)(=O)Nc1nn(C)c2cc(Cn3cccn3)cc(OC)c12` [compound 123, N-(6-((1H-pyrazol-1-yl)methyl)-4-methoxy-1-methyl-1H-indazol-3-yl)-2,6-dimethoxybenzenesulfonamide], the IC50 in experiment [1] (setting [4]) is 10 to 20 µM. As for `COc1cc(Cn2cccn2)cc2[nH]nc(NS(=O)(=O)c3ccccc3F)c12` [compound 124, N-(6-((1H-pyrazol-1-yl)methyl)-4-methoxy-1H-indazol-3-yl)-2-fluorobenzenesulfonamide], the IC50 in experiment [1] (setting [4]) is 20 to 50 µM. Take `COc1cccc(OC)c1S(=O)(=O)Nc1n[nH]c2cc(Cn3cccn3)cc(OC)c12` [compound 125, N-(6-((1H-pyrazol-1-yl)methyl)-4-methoxy-1H-indazol-3-yl)-2,6-dimethoxybenzenesulfonamide]: in experiment [1] (setting [4]), the IC50 is no more than 10 µM. For the compound `COc1cc(Cn2cc(C#N)cn2)cc2onc(NS(=O)(=O)CC3CCCCC3)c12` [compound 126, N-(6-((4-cyano-1H-pyrazol-1-yl)methyl)-4-methoxybenzo[d]isoxazol-3-yl)-1-cyclohexylmethanesulfonamide], the 50% inhibitory concentration (IC50) in experiment [1] (setting [4]) was no more than 10 µM. As for `COc1cc(Cn2cccn2)cc2nnc(NS(=O)(=O)CC3CCCCC3)n12` [compound 127, N-(7-((1H-pyrazol-1-yl)methyl)-5-methoxy-[1,2,4]triazolo[4,3-a]pyridin-3-yl)-1-cyclohexylmethanesulfonamide], the IC50 in experiment [1] (setting [4]) was no more than 10 µM. Consider `COc1cc(Cn2ccc(CN)n2)cc2onc(NS(=O)(=O)CC3CCCCC3)c12` [compound 128], for which the IC50 in experiment [1] (setting [4]) lay within 20 to 50 µM. Same read-out and setting: for `CCC(=O)NCc1ccn(Cc2cc(OC)c3c(NS(=O)(=O)CC4CCCCC4)noc3c2)n1` [compound 129] the value was no more than 10 µM; for `COc1cc(Cn2cc(CN)cn2)cc2onc(NS(=O)(=O)CC3CCCCC3)c12` [compound 130], no more than 10 µM.
